Experimental data taken from patent US11612604B2, “Methods of treating cancer with PLK4 inhibitors” (LUDWIG INSTITUTE FOR CANCER RESEARCH LTD, priority 2017, dated 2023).

biological target: T1, PLK4 (Homo sapiens, UniProt O00444); test: Activity (IC50) of the Table 1 compounds as PLK4 inhibitors; format: biochemical; details: Table 1, IC50 class
T1 sequence (O00444 1-970): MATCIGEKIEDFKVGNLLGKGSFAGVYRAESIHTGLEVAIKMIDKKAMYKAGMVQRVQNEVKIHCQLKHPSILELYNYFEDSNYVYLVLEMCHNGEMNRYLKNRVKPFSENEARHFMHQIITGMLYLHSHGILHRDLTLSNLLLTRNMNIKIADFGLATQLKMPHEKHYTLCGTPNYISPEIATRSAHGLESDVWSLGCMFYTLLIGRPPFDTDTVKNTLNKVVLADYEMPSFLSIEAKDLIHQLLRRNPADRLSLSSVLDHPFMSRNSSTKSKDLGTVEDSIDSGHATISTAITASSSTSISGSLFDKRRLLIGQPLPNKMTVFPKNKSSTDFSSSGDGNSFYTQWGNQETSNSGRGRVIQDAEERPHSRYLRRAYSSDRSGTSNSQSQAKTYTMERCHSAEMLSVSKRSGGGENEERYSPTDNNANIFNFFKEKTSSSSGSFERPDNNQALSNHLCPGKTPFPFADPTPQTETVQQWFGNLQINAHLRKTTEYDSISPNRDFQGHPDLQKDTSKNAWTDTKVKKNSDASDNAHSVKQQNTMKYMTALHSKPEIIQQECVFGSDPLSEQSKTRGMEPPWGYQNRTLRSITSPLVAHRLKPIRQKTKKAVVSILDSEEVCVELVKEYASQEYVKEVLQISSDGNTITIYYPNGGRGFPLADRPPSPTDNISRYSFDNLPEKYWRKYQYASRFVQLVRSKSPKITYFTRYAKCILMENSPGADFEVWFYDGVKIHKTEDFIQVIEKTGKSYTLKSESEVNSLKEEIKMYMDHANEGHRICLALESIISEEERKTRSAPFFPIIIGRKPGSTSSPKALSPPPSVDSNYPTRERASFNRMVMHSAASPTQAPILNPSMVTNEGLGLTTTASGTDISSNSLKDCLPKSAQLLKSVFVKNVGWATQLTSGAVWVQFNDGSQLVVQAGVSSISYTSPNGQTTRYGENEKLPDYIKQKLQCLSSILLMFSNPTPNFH

IC50, < 100 nM:
Cc1cc(Nc2nc(Sc3ccc(NC(=O)C4CC4)cc3)nc(NCCN(C)C)c2C)n[nH]1
CNCCN(C)c1nc(Sc2ccc(NC(=O)C3CC3)cc2)nc(Nc2cc(C)[nH]n2)c1C
COCCN(C)c1nc(Sc2ccc(NC(=O)C3CC3)cc2)nc(Nc2cc(C)[nH]n2)c1C
COc1c(Nc2cc(C)[nH]n2)nc(Sc2ccc(NC(=O)C3CC3)cc2)nc1N1CCOCC1
COc1c(Nc2cc(C)[nH]n2)nc(Sc2ccc(S(=O)(=O)Cc3ccccc3)cc2)nc1N1CCN(CCN2CCCC2)CC1
Cc1cc(Nc2nc(Sc3ccccc3)nc(N3CCOCC3)c2C)n[nH]1
CC(=O)Nc1ccc(Sc2nc(Nc3cc(C)[nH]n3)c(C)c(N3CCC(N)CC3)n2)cc1
CC(=O)Nc1ccc(Sc2nc(Nc3cc(C)[nH]n3)c(C)c(N3CCC(N(C)C)CC3)n2)cc1
CC(=O)Nc1ccc(Sc2nc(Nc3cc(C)[nH]n3)c(C)c(N3CCC(C)(O)CC3)n2)cc1
CCN(CC)c1nc(Sc2ccc(NC(C)=O)cc2)nc(Nc2cc(C)[nH]n2)c1C
Cc1cc(Nc2nc(Sc3ccc(N)cc3)nc(N3CCC(O)CC3)c2C)n[nH]1
Cc1cc(Nc2nc(Sc3ccc(N)cc3)nc(N3CCOCC3)c2C)n[nH]1
COCC(=O)N1CCN(c2nc(Sc3ccccc3)nc(Nc3cc(C)[nH]n3)c2C)CC1
CSc1nc(Nc2cc(C)[nH]n2)c(C)c(N(C)C(C)C)n1
COc1c(Nc2cc(C)[nH]n2)nc(Sc2ccc(NC(C)=O)cc2)nc1N1CCC(CCN(C)C)CC1
CNC(=O)Nc1ccc(Sc2nc(Nc3cc(C)[nH]n3)c(C)c(N(C)C(C)C)n2)cc1
CNC(=O)Nc1ccc(Sc2nc(Nc3cc(C)[nH]n3)c(C)c(N3CCN(C(=O)COC)CC3)n2)cc1
Cc1cc(Nc2nc(Sc3ccc(N)cc3)nc(N(C)C(C)C)c2C)n[nH]1
COCC(=O)N1CCN(c2nc(Sc3ccc(N)cc3)nc(Nc3cc(C)[nH]n3)c2C)CC1
Cc1ccc(Sc2nc(Nc3cc(C)[nH]n3)c(C)c(N3CCC(O)CC3)n2)cc1
Cc1ccc(Sc2nc(Nc3cc(C)[nH]n3)c(C)c(N3CCOCC3)n2)cc1
COCC(=O)N1CCN(c2nc(Sc3ccc(C)cc3)nc(Nc3cc(C)[nH]n3)c2C)CC1
COc1c(Nc2cc(C)[nH]n2)nc(Sc2ccc(S(=O)(=O)Cc3ccccc3)cc2)nc1N1CCN(CCN2CCCCC2)CC1
COc1c(Nc2cc(C)[nH]n2)nc(Sc2ccc(S(=O)(=O)Cc3ccccc3)cc2)nc1N1CCN(CCN2C(C)CCCC2C)CC1 (stereo not drawn)
COc1c(Nc2cc(C)[nH]n2)nc(Sc2ccc(S(=O)(=O)Cc3ccccc3)cc2)nc1N1CCN(CCN2CCC(O)CC2)CC1
CC(=O)Nc1ccc(Sc2nc(Nc3cc(C)[nH]n3)c(Cl)c(N3CCC(O)CC3)n2)cc1
CC(=O)Nc1ccc(Cc2nc(N3CCC(O)CC3)nc(Nc3cc(C)[nH]n3)c2Cl)cc1
CCN(c1nc(Sc2ccc(NC(C)=O)cc2)nc(Nc2cc(C)[nH]n2)c1C)C(C)C
CC(=O)Nc1ccc(Sc2nc(Nc3cc(C)[nH]n3)c(C)c(N(CCO)C(C)C)n2)cc1
CC(=O)Nc1ccc(Sc2nc(Nc3cc(C)[nH]n3)c(C)c(N3CCN(CCN4CCOCC4)CC3)n2)cc1
CCOc1c(Nc2cc(C)[nH]n2)nc(Sc2ccc(NC(C)=O)cc2)nc1N1CCC(O)CC1
Cc1ccc(Sc2nc(Nc3cc(C)[nH]n3)c(C)c(N(C)C(C)C)n2)cc1
COCC(=O)N1CCN(c2nc(SC)nc(Nc3cc(C)[nH]n3)c2C)CC1
Cc1cc(Nc2nc(Sc3ccc(NC(=O)C4CC4)cc3)nc(N3CCC(O)CC3)c2C)n[nH]1
COc1c(Nc2cc(C)[nH]n2)nc(Sc2ccc(CC(=O)C3CC3)cc2)nc1N1CCC(O)CC1
CC(=O)Nc1ccc(Sc2nc(Nc3cc(C)[nH]n3)c(C)c(N3C4CCC3CC(O)C4)n2)cc1 (stereo not drawn)
COc1c(Nc2cc(C)[nH]n2)nc(Sc2ccc(NC(C)=O)cc2)nc1N1C2CCC1CC(O)C2 (stereo not drawn)
COc1c(Nc2cc(C)[nH]n2)nc(Sc2ccc(S(=O)(=O)Cc3ccccc3)cc2)nc1N1CCO[C@H](C)C1
COc1c(Nc2cc(C)[nH]n2)nc(Sc2ccc(S(=O)(=O)Cc3ccccc3)cc2)nc1N1CCN(C2CCN(Cc3ccccc3)CC2)CC1
COc1c(Nc2cc(C)[nH]n2)nc(Sc2ccc(S(=O)(=O)Cc3ccccc3)cc2)nc1N1CCO[C@@H](C)C1
COc1c(Nc2cc(C)[nH]n2)nc(Sc2ccc(S(=O)(=O)Cc3ccccc3)cc2)nc1N1CC2CCC(C1)O2
COc1cccc(CS(=O)(=O)c2ccc(Sc3nc(Nc4cc(C)[nH]n4)c(OC)c(N4CCN(CCN(C)Cc5ccccc5)CC4)n3)cc2)c1
COc1c(Nc2cc(C)[nH]n2)nc(Sc2ccc(S(=O)(=O)Cc3ccccc3C)cc2)nc1N1CCN(CCN(C)C)CC1
COc1c(Nc2cc(C)[nH]n2)nc(Sc2ccc(S(=O)(=O)Cc3ccccc3)cc2)nc1N1CCOC[C@H]1C
COc1c(Nc2cc(C)[nH]n2)nc(Sc2ccc(S(=O)(=O)Cc3ccccc3)cc2)nc1N1CCOC[C@@H]1C
COc1c(Nc2cc(C)[nH]n2)nc(Sc2ccc(S(=O)(=O)Cc3cccc(F)c3)cc2)nc1N1CCN(CCN(C)C)CC1
COc1c(Nc2cc(C)[nH]n2)nc(Sc2ccc(S(=O)(=O)Cc3cccc([N+](=O)[O-])c3F)cc2)nc1N1CCN(CCN(C)C)CC1
COC(=O)c1cccc(CS(=O)(=O)c2ccc(Sc3nc(Nc4cc(C)[nH]n4)c(OC)c(N4CCN(CCN(C)C)CC4)n3)cc2)c1
COc1c(Nc2cc(C)[nH]n2)nc(Sc2ccc(S(=O)(=O)Cc3cccc(C(N)=O)c3)cc2)nc1N1CCN(CCN(C)C)CC1
COc1c(Nc2cc(C)[nH]n2)nc(Sc2ccc(S(=O)(=O)Cc3ccccc3)cc2)nc1N1CCN(CCN2CCC2)CC1
COc1c(Nc2cc(C)[nH]n2)nc(Sc2ccc(S(=O)(=O)Cc3ccccc3NC(C)=O)cc2)nc1N1CCN(CCN(C)C)CC1
COc1c(Nc2cc(C)[nH]n2)nc(Sc2ccc(S(=O)(=O)Cc3ccccc3C(F)(F)F)cc2)nc1N1CCN(CCN(C)C)CC1
COc1c(Nc2cc(C)[nH]n2)nc(Sc2ccc(S(=O)(=O)Cc3ccccc3N(C)C)cc2)nc1N1CCN(CCN(C)C)CC1
COc1c(Nc2cc(C)[nH]n2)nc(Sc2ccc(S(=O)(=O)Cc3ccccc3-c3ccccc3)cc2)nc1N1CCN(CCN(C)C)CC1
COc1c(Nc2cc(C)[nH]n2)nc(Sc2ccc(S(=O)(=O)Cc3ccccc3C#N)cc2)nc1N1CCN(CCN(C)C)CC1
COc1c(Nc2cc(C)[nH]n2)nc(Sc2ccc(S(=O)(=O)Cc3cccc(C(=O)N(C)C)c3)cc2)nc1N1CCN(CCN(C)C)CC1
COc1c(Nc2cc(C)[nH]n2)nc(Sc2ccc(S(=O)(=O)Cc3ccccc3C(N)=O)cc2)nc1N1CCN(CCN(C)C)CC1
COc1c(Nc2cc(C)[nH]n2)nc(Sc2ccc(S(=O)(=O)Cc3ccccc3)cc2)nc1N1CCC(CCN2C3CCCC2CC3)CC1
COc1c(Nc2cc(C)[nH]n2)nc(Sc2ccc(S(=O)(=O)Cc3cccc([N+](=O)[O-])c3)cc2)nc1N1CCOC[C@H]1C
COc1c(Nc2cc(C)[nH]n2)nc(Sc2ccc(S(=O)(=O)Cc3ccccc3)cc2)nc1N1CCN(C2CCNCC2)CC1
COc1c(Nc2cc(C)[nH]n2)nc(Sc2ccc(S(=O)(=O)Cc3ccccc3)cc2Cl)nc1N1CCN(CCN(C)C)CC1
COc1c(Nc2cc(C)[nH]n2)nc(Sc2ccc(S(=O)(=O)Cc3cccc([N+](=O)[O-])c3)cc2)nc1N1CCO[C@H](C)C1
COc1c(Nc2cc(C)[nH]n2)nc(Sc2ccc(S(=O)(=O)Cc3cccc([N+](=O)[O-])c3)cc2)nc1N1CCO[C@@H](C)C1
